Data on 6 compounds can be found in patent US20160318987A1 (MEDIMMUNE LIMITED, priority 2013, published 2016).

Each structure is given as a SMILES string. Where a SMILES comes first, the peptide text is derived from it. [ ]: non-standard residue; d: D form. αMeF = C[C@](N)(Cc1ccccc1)C(=O)O; Aib = CC(C)(N)C(=O)O

One experiment deals with T1, hGLP-1R (Homo sapiens, UniProt P43220).
T1 construct: expressed in transfected cells
The experiment is described as follows: cAMP functional assay, cells expressing human GLP-1 receptor (primary assay). The class given is cell-based. As to conditions: n = 2. Here is the method:
(§1) The biological activities/receptor potencies of the synthetic GLP-1 peptides described herein are suitably tested for biological activity, e.g., stimulation of one or more cellular receptor responses. Stable cell lines expressing human, mouse, rat, or dog GLP-1 receptor (GLP-1R), glucagon receptor (GCGR) or glucose-dependent insulinotropic peptide (gastric inhibitory polypeptide) receptor (GIPR) are generated in HEK293 cells or CHO cells by standard methods.
(§2) cAMP assays were performed using “assay buffer”: Assay Buffer: 0.1% BSA (Sigma #A3059) in HBSS (Sigma #H8264) with 25 mM HEPES, pH 7.4 and containing 0.5 mM IBMX (Sigma #17018).
(§3) Low protein binding 384-well plates (Greiner #781280) are used to perform eleven 1 in 5 serial dilutions of test samples which are made in assay buffer. All sample dilutions are made in duplicate.
(§4) A frozen cryo-vial of cells expressing the receptor of interest is thawed rapidly in a water-bath, transferred to pre-warmed assay buffer and spun at 240× g for 5 minutes. Cells are re-suspended in assay buffer at a batch-dependent optimized concentration (e.g. hGCGR cells at 2×10^5 cells/ml, hGLP-1R and hGIPR cells at 1×10^5 cells /ml).
(§5) From the dilution plate, a 5 μL replica is stamped onto a black shallow-well u-bottom 384-well plate (Corning #3676). To this, 5 μL cell suspension is added and the plates incubated at room temperature for 30 minutes.
(§6) cAMP levels are measured using a commercially available cAMP dynamic 2 HTRF kit (Cisbio, Cat #62AM4PEJ), following the two step protocol as per manufacturer's recommendations. In brief; anti-cAMP cryptate (donor fluorophore) and cAMP-d2 (acceptor fluorophore) are made up separately by diluting each 1/20 in conjugate & lysis buffer provided in the kit. 5 μL anti-cAMP cryptate is added to all wells of the assay plate, and 5 μL cAMP-d2 is added to all wells except non-specific binding (NSB) wells, to which conjugate and lysis buffer are added. Plates are incubated at room temperature for one hour and then read on an Envision (Perkin Elmer) using excitation wavelength of 320 nm and emission wavelengths of 620 nm & 665 nm. EC50 values of the synthetic peptides determined in cAMP assays are then determined.

A further experiment concerns the target T2, hGIP-R (Homo sapiens, UniProt P48546).
T2 construct: expressed in transfected cells
T2 sequence (P48546 22-466): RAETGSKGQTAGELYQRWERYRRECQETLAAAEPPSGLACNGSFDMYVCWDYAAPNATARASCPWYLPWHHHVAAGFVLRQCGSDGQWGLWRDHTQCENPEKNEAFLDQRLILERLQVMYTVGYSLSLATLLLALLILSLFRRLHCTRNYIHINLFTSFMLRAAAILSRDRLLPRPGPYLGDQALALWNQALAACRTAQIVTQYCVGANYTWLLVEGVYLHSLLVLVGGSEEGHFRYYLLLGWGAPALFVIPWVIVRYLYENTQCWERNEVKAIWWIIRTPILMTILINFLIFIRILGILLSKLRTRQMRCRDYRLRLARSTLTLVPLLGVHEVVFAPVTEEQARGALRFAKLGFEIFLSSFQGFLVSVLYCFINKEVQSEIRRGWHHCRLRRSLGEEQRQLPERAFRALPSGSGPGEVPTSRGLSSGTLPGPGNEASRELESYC
The experiment can be described thus: cAMP functional assay, cells expressing human GIP receptor (primary assay). The note with it: n = 2. In kind it is cell-based. Here is the method:
as §1, §2, §3, §4, §5, §6

T1 sequence (P43220 24-463): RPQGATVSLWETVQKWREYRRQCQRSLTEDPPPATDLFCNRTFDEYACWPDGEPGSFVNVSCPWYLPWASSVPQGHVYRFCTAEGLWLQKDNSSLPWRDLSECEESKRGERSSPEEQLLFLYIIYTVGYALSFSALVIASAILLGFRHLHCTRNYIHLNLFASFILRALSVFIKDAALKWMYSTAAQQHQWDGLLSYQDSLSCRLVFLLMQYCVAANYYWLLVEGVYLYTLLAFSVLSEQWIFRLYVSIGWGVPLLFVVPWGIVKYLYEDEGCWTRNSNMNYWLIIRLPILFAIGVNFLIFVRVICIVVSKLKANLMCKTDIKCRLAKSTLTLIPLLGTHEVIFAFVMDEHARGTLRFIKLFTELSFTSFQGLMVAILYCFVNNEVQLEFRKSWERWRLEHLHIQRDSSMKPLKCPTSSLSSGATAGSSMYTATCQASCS

The term EC50 denotes the midpoint of the concentration-response curve. A low value points to an effect from little substance. Take `CC[C@H](C)[C@H](NC(=O)[C@](C)(Cc1ccccc1)NC(=O)[C@H](CCC(=O)O)NC(=O)[C@H](CCCCN)NC(=O)[C@H](C)NC(=O)[C@H](C)NC(=O)[C@H](CCC(N)=O)NC(=O)CNC(=O)[C@H](CCC(=O)O)NC(=O)[C@H](CC(C)C)NC(=O)[C@](C)(Cc1ccccc1)NC(=O)[C@H](CO)NC(=O)[C@H](CO)NC(=O)[C@@H](NC(=O)[C@H](CC(=O)O)NC(=O)[C@H](CO)NC(=O)[C@@H](NC(=O)[C@](C)(Cc1ccccc1)NC(=O)[C@H](CO)NC(=O)CNC(=O)[C@H](CCC(=O)O)NC(=O)C(C)(C)NC(=O)[C@@H](N)Cc1c[nH]cn1)[C@@H](C)O)C(C)C)C(=O)N[C@@H](C)C(=O)N[C@@H](Cc1c[nH]c2ccccc12)C(=O)N[C@@H](CC(C)C)C(=O)N[C@H](C(=O)N[C@@H](CCCCN)C(=O)NCC(=O)N[C@@H](CCCNC(=N)N)C(N)=O)C(C)C` [SEQ ID NO: 34, H-(Aib)^2-EG-(S)^5-(α-MeF)^6-TSDV^10 SS-(α-MeF)^13-LE^15 GQAAK^20 E-(α-MeF)^22-IAW^25 LVKGR^30] (H-H[Aib]EGS[αMeF]TSDVSS[αMeF]LEGQAAKE[αMeF]IAWLVKGR-NH2): the EC50 at hGLP-1R came out at 0.0225 nM; at hGIP-R, 102 nM.

As to `CC[C@H](C)[C@H](NC(=O)[C@H](Cc1ccccc1)NC(=O)[C@H](CCC(=O)O)NC(=O)[C@H](CCCCN)NC(=O)[C@H](C)NC(=O)[C@H](C)NC(=O)[C@H](CCC(N)=O)NC(=O)CNC(=O)[C@H](CCC(=O)O)NC(=O)[C@H](CC(C)C)NC(=O)[C@H](Cc1ccccc1)NC(=O)[C@H](CO)NC(=O)[C@H](CO)NC(=O)[C@@H](NC(=O)[C@H](CC(=O)O)NC(=O)[C@H](CO)NC(=O)[C@@H](NC(=O)[C@H](Cc1ccccc1)NC(=O)[C@@H](NC(=O)CNC(=O)[C@H](CCC(=O)O)NC(=O)C(C)(C)NC(=O)[C@@H](N)Cc1c[nH]cn1)[C@@H](C)O)[C@@H](C)O)C(C)C)C(=O)N[C@@H](C)C(=O)N[C@@H](Cc1ccccc1)C(=O)N[C@@H](CC(C)C)C(=O)N[C@H](C(=O)N[C@@H](CCCCN)C(=O)NCC(=O)N[C@@H](CCCNC(=N)N)C(N)=O)C(C)C` [SEQ ID NO: 18, H-(Aib)^2-EGT^5-FTSDV^10 SS-(F)^13-LE^15 GQAAK^20 EFIA-(F)^25 LVKGR^30] (H-H[Aib]EGTFTSDVSSFLEGQAAKEFIAFLVKGR-NH2), the EC50 at hGLP-1R was 0.0163 nM; on hGIP-R, 102 nM.

Turning to `CC[C@H](C)[C@H](NC(=O)[C@H](Cc1ccccc1)NC(=O)[C@H](CCC(=O)O)NC(=O)[C@H](CCCCN)NC(=O)[C@H](C)NC(=O)[C@H](C)NC(=O)[C@H](CCC(N)=O)NC(=O)CNC(=O)[C@H](CCC(=O)O)NC(=O)[C@H](CC(C)C)NC(=O)[C@](C)(Cc1ccccc1)NC(=O)[C@H](CO)NC(=O)[C@H](CO)NC(=O)[C@@H](NC(=O)[C@H](CC(=O)O)NC(=O)[C@H](CO)NC(=O)[C@@H](NC(=O)[C@](C)(Cc1ccccc1)NC(=O)[C@H](CO)NC(=O)CNC(=O)[C@H](CCC(=O)O)NC(=O)C(C)(C)NC(=O)[C@@H](N)Cc1c[nH]cn1)[C@@H](C)O)C(C)C)C(=O)N[C@@H](C)C(=O)N[C@@](C)(Cc1ccccc1)C(=O)N[C@@H](CC(C)C)C(=O)N[C@H](C(=O)N[C@@H](CCCCN)C(=O)NCC(=O)N[C@@H](CCCNC(=N)N)C(N)=O)C(C)C` [SEQ ID NO: 35, H-(Aib)^2-EG-(S)^5-(α-MeF)^6-TSDV^10 SS-(α-MeF)^13-LE^15 GQAAK^20 EFIA-(α-MeF)^25 LVKGR^30] (H-H[Aib]EGS[αMeF]TSDVSS[αMeF]LEGQAAKEFIA[αMeF]LVKGR-NH2), the EC50 on hGLP-1R stood at 0.0201 nM; at hGIP-R, 102 nM.

For `CC[C@H](C)[C@H](NC(=O)[C@H](Cc1ccccc1)NC(=O)[C@H](CCC(=O)O)NC(=O)[C@H](CCCCN)NC(=O)[C@H](C)NC(=O)[C@H](C)NC(=O)[C@H](CCC(N)=O)NC(=O)CNC(=O)[C@H](CCC(=O)O)NC(=O)[C@H](CC(C)C)NC(=O)[C@H](Cc1ccccc1)NC(=O)[C@H](CO)NC(=O)[C@H](CO)NC(=O)[C@@H](NC(=O)[C@H](CC(=O)O)NC(=O)[C@H](CO)NC(=O)[C@@H](NC(=O)[C@H](Cc1ccccc1)NC(=O)[C@H](CO)NC(=O)CNC(=O)[C@H](CCC(=O)O)NC(=O)C(C)(C)NC(=O)[C@@H](N)Cc1c[nH]cn1)[C@@H](C)O)C(C)C)C(=O)N[C@@H](C)C(=O)N[C@@H](Cc1ccccc1)C(=O)N[C@@H](CC(C)C)C(=O)N[C@H](C(=O)N[C@@H](CCCCN)C(=O)NCC(=O)N[C@@H](CCCNC(=N)N)C(N)=O)C(C)C` [SEQ ID NO: 33, H-(Aib)^2-EG-(S)^5-FTSDV^10 SS-(F)^13-LE^15 GQAAK^20 EFIA-(F)^25 LVKGR^30] (H-H[Aib]EGSFTSDVSSFLEGQAAKEFIAFLVKGR-NH2), the EC50 came to 0.0183 nM on hGLP-1R and 102 nM at hGIP-R.

Consider `CC[C@H](C)[C@H](NC(=O)[C@](C)(Cc1ccccc1)NC(=O)[C@H](CCC(=O)O)NC(=O)[C@H](CCCCN)NC(=O)[C@H](C)NC(=O)[C@H](C)NC(=O)[C@H](CCC(N)=O)NC(=O)CNC(=O)[C@H](CCC(=O)O)NC(=O)[C@H](CC(C)C)NC(=O)[C@](C)(Cc1ccccc1)NC(=O)[C@H](CO)NC(=O)[C@H](CO)NC(=O)[C@@H](NC(=O)[C@H](CC(=O)O)NC(=O)[C@H](CO)NC(=O)[C@@H](NC(=O)[C@](C)(Cc1ccccc1)NC(=O)[C@H](CO)NC(=O)CNC(=O)[C@H](CCC(=O)O)NC(=O)C(C)(C)NC(=O)[C@@H](N)Cc1c[nH]cn1)[C@@H](C)O)C(C)C)C(=O)N[C@@H](C)C(=O)N[C@@](C)(Cc1ccccc1)C(=O)N[C@@H](CC(C)C)C(=O)NC(C)(C)C(=O)N[C@@H](CCCCN)C(=O)NC(C)(C)C(=O)N[C@@H](CCCNC(=N)N)C(N)=O` [SEQ ID NO: 43, H-(Aib)^2-EG-(S)^5-(α-MeF)^6-TSDV^10 SS-(α-MeF)^13-LE^15 GQAAK^20 E-(α-MeF)^22-IA-(α-MeF)^25 L-(Aib)^27-K-(Aib)^29-R^30] (H-H[Aib]EGS[αMeF]TSDVSS[αMeF]LEGQAAKE[αMeF]IA[αMeF]L[Aib]K[Aib]R-NH2), for which the EC50 at hGLP-1R stood at 0.0707 nM; on hGIP-R, 102 nM.

Consider `CC[C@H](C)[C@H](NC(=O)[C@](C)(Cc1ccccc1)NC(=O)[C@H](CCC(=O)O)NC(=O)[C@H](CCCCN)NC(=O)[C@H](C)NC(=O)[C@H](C)NC(=O)[C@H](CCC(N)=O)NC(=O)CNC(=O)[C@H](CCC(=O)O)NC(=O)[C@H](CC(C)C)NC(=O)[C@](C)(Cc1ccccc1)NC(=O)[C@H](CO)NC(=O)[C@H](CO)NC(=O)[C@@H](NC(=O)[C@H](CC(=O)O)NC(=O)[C@H](CO)NC(=O)[C@@H](NC(=O)[C@](C)(Cc1ccccc1)NC(=O)[C@@H](NC(=O)CNC(=O)[C@H](CCC(=O)O)NC(=O)C(C)(C)NC(=O)[C@@H](N)Cc1c[nH]cn1)[C@@H](C)O)[C@@H](C)O)C(C)C)C(=O)N[C@@H](C)C(=O)N[C@@](C)(Cc1ccccc1)C(=O)N[C@@H](CC(C)C)C(=O)N[C@H](C(=O)N[C@@H](CCCCN)C(=O)NCC(=O)N[C@@H](CCCNC(=N)N)C(N)=O)C(C)C` [SEQ ID NO: 19, H-(Aib)^2-EGT^5-(α-MeF)^6-TSDV^10 SS-(α-MeF)^13-LE^15 GQAAK^20 E-(α-MeF)^22-IA-(α-MeF)^25 LVKGR^30] (H-H[Aib]EGT[αMeF]TSDVSS[αMeF]LEGQAAKE[αMeF]IA[αMeF]LVKGR-NH2), for which the EC50 was 0.026 nM at hGLP-1R and 102 nM at hGIP-R.
